Data: patent US20020111274A1, “1-alkyl-3-[1-(substituted phenyl) benzotriazol-6-yl] uracils” (BASF Aktiengesellschaft, priority 2000, published 2002)

Legend:
Parameters in all cases: scale not given here
[1] = test system: ECHOG Barnyardgrass; test: Preemergence herbicidal evaluation, ECHOG; format: in vivo, Echinochloa crus-galli, (L.) Beau; settings: preemergence
Source text: (§1) The preemergence herbicidal activity of the test compounds of the present invention is exemplified by the following tests in which the seeds of a variety of monocotyledonous and dicotyledonous plants are separately mixed with potting soil and planted on top of approximately one inch of soil in separate pint cups. […] The treated cups are then placed on greenhouse benches, watered and cared for in accordance with conventional greenhouse procedures. From four to five weeks after treatment, the tests are terminated and each cup is examined and rated according to the rating system provided in Example 46.

[2] = test system: ABUTH Velvetleaf; test: Postemergence herbicidal evaluation, ABUTH; format: in vivo, Abutilon theophrasti, Medic.; settings: postemergence spray, rated about two-three weeks after treatment
Description: (§2) In this evaluation, seedling plants are grown in jiffy flats for about two weeks. The test compounds are dispersed in 80/20 acetone/water mixtures containing 1.0% SUN-IT® II, a methylated seed oil, in sufficient quantities to provide the equivalent of about 0.006 kg to 0.400 kg per hectare of active compound when applied to the plants through a spray nozzle operating at 40 psi for a predetermined time. After spraying, the plants are placed on greenhouse benches and are cared for in accordance with conventional greenhouse procedures. Approximately two - three weeks after treatment, the seedling plants are examined and rated according to the rating system set forth below. Where more than one test is involved for a given compound, the data are averaged.

[3] = test system: CHEAL Lambsquarters, Common; test: Postemergence herbicidal evaluation, CHEAL; format: in vivo, Chenopodium album, L.; settings: postemergence spray, rated about two-three weeks after treatment
Description: as §2

[4] = test system: ORYSAT Rice, Tebonnet; test: Preemergence herbicidal evaluation, ORYSAT; format: in vivo, Oryza sativa, (L.); settings: preemergence
Source text: as §1

[5] = test system: TRZAWR Wheat, Winter, cv Riband; test: Postemergence herbicidal evaluation, TRZAWR; format: in vivo, Triticum aestivum; settings: postemergence spray, rated about two-three weeks after treatment
Description: as §2

[6] = test system: SETVI Foxtail, Green; test: Postemergence herbicidal evaluation, SETVI; format: in vivo, Setaria viridis, (L.) Beau; settings: postemergence spray, rated about two-three weeks after treatment
Description: as §2

[7] = test system: GLXMAW Soybean, Williams; test: Postemergence herbicidal evaluation, GLXMAW; format: in vivo, Glycine max, (L.) Merr. cv Williams; settings: postemergence spray, rated about two-three weeks after treatment
Description: as §2

[8] = test system: ZEAMX Corn, Field; test: Preemergence herbicidal evaluation, ZEAMX; format: in vivo, Zea mays, L. (Sammel-Bezeichnung); settings: preemergence
Source text: as §1

[9] = test system: TRZAWR Wheat, Winter, cv Riband; test: Preemergence herbicidal evaluation, TRZAWR; format: in vivo, Triticum aestivum; settings: preemergence
Source text: as §1

[10] = test system: CHEAL Lambsquarters, Common; test: Preemergence herbicidal evaluation, CHEAL; format: in vivo, Chenopodium album, L.; settings: preemergence
Source text: as §1

[11] = test system: AMBEL Ragweed, Common; test: Preemergence herbicidal evaluation, AMBEL; format: in vivo, Ambrosia artemisifolia, L.; settings: preemergence
Source text: as §1

[12] = test system: ABUTH Velvetleaf; test: Preemergence herbicidal evaluation, ABUTH; format: in vivo, Abutilon theophrasti, Medic.; settings: preemergence
Source text: as §1

Compound: Cc1ccccc1-n1nnc2cc(F)c(-n3c(=O)cc(C(F)(F)F)n(C)c3=O)cc21 [Example 20]
- ECHCG herbicidal rating ([1]; rate 0.016 kg/ha): 0.0
- ECHCG herbicidal rating ([1]; rate 0.032 kg/ha): 0.0
- ECHCG herbicidal rating ([1]; rate 0.062 kg/ha): 3.5
- ECHCG herbicidal rating ([1]; rate 0.125 kg/ha): 8.0
- Postemergence herbicidal rating ABUTH ([2]; 0.008 kg/ha): 9.0
- Postemergence herbicidal rating ABUTH ([2]; 0.016 kg/ha): 9.0
- Postemergence herbicidal rating ABUTH ([2]; 0.032 kg/ha): 9.0
- Postemergence herbicidal rating ABUTH ([2]; 0.062 kg/ha): 9.0
- Postemergence herbicidal rating CHEAL ([3]; 0.008 kg/ha): 0.0
- Postemergence herbicidal rating CHEAL ([3]; 0.016 kg/ha): 0.0
- Postemergence herbicidal rating CHEAL ([3]; 0.032 kg/ha): 3.0
- Postemergence herbicidal rating CHEAL ([3]; 0.062 kg/ha): 5.0
- ORYSAT herbicidal rating ([4]; rate 0.016 kg/ha): 0.0
- ORYSAT herbicidal rating ([4]; rate 0.032 kg/ha): 0.0
- ORYSAT herbicidal rating ([4]; rate 0.062 kg/ha): 1.0
- ORYSAT herbicidal rating ([4]; rate 0.125 kg/ha): 3.0
- Postemergence herbicidal rating TRZAWR ([5]; 0.008 kg/ha): 1.5
- Postemergence herbicidal rating TRZAWR ([5]; 0.016 kg/ha): 1.5
- Postemergence herbicidal rating TRZAWR ([5]; 0.032 kg/ha): 1.5
- Postemergence herbicidal rating TRZAWR ([5]; 0.062 kg/ha): 2.5
- Postemergence herbicidal rating SETVI ([6]; 0.008 kg/ha): 0.0
- Postemergence herbicidal rating SETVI ([6]; 0.016 kg/ha): 0.0
- Postemergence herbicidal rating SETVI ([6]; 0.032 kg/ha): 0.0
- Postemergence herbicidal rating SETVI ([6]; 0.062 kg/ha): 0.0
- Postemergence herbicidal rating GLXMAW ([7]; 0.008 kg/ha): 3.0
- Postemergence herbicidal rating GLXMAW ([7]; 0.016 kg/ha): 5.5
- Postemergence herbicidal rating GLXMAW ([7]; 0.032 kg/ha): 5.5
- Postemergence herbicidal rating GLXMAW ([7]; 0.062 kg/ha): 5.5
- ZEAMX herbicidal rating ([8]; rate 0.016 kg/ha): 0.0
- ZEAMX herbicidal rating ([8]; rate 0.032 kg/ha): 1.0
- ZEAMX herbicidal rating ([8]; rate 0.062 kg/ha): 4.5
- ZEAMX herbicidal rating ([8]; rate 0.125 kg/ha): 6.0
- TRZAWR herbicidal rating ([9]; rate 0.016 kg/ha): 0.0
- TRZAWR herbicidal rating ([9]; rate 0.032 kg/ha): 0.0
- TRZAWR herbicidal rating ([9]; rate 0.062 kg/ha): 4.0
- TRZAWR herbicidal rating ([9]; rate 0.125 kg/ha): 6.0
- CHEAL herbicidal rating ([10]; rate 0.016 kg/ha): 9.0
- CHEAL herbicidal rating ([10]; rate 0.032 kg/ha): 9.0
- CHEAL herbicidal rating ([10]; rate 0.062 kg/ha): 9.0
- CHEAL herbicidal rating ([10]; rate 0.125 kg/ha): 9.0
- AMBEL herbicidal rating ([11]; rate 0.016 kg/ha): 0.0
- AMBEL herbicidal rating ([11]; rate 0.032 kg/ha): 1.5
- AMBEL herbicidal rating ([11]; rate 0.062 kg/ha): 2.5
- AMBEL herbicidal rating ([11]; rate 0.125 kg/ha): 5.5
- ABUTH herbicidal rating ([12]; rate 0.016 kg/ha): 0.0
- ABUTH herbicidal rating ([12]; rate 0.032 kg/ha): 6.5
- ABUTH herbicidal rating ([12]; rate 0.062 kg/ha): 9.0
- ABUTH herbicidal rating ([12]; rate 0.125 kg/ha): 9.0
